Experimental data from patent US20240084305A1, “MODULATORS OF CELL PROLIFERATION AND USES THEREOF” (Kumquat Biosciences Inc., priority 2020, published 2024).

Assays:
Format in all cases: cell-based
[1] = test system: A427, ASPC1, Panc04.03, Ls174T, Ls513, AGS and HEClA cancer cell lines (KRAS G12D mutation); test: 3D proliferation assay (ultra-low attachment plates), small molecule Kras12D inhibitor plus second inhibitor, Bliss independence model
From the text: This study explores the inhibition of a variety types of cancer cells (e.g., KRAS G12D driven tumor cells) using a combination of small molecule based Kras12D inhibitor and SOS inhibitor. Cell lines from multiple indications were utilized and include the A427 (a non-small cell lung cancer, “NSCLC”), ASPC1 and Panc04.03 (both pancreatic cancer), Ls174T and Ls513 (both colorectal cancer), AGS (a gastric cancer), and HEClA (an endometrial cancer cell line). All cell lines contain a KRAS G12D mutation. The seven cancer cell lines were cultured in vitro in a 3D proliferation assay where cells are grown in ultra-low attachment surface cell culture plates in RPMI medium containing ˜10% FBS. Cells were incubated with different concentrations of SOS inhibitor (e.g., 10 uM, 3 uM, or 1 uM) and with different concentrations of a Kras12D inhibitors (either Compound A, Compound B, or Compound C, e.g., 0.1 uM, 0.3 uM, 1.0 uM, 3.0 uM) for a period of 5 days. […] The degree of synergy for the combination across cell lines was calculated by using the Bliss independence model as described herein. […] The greater the departure from Bliss indicates more profound synergy: ≤0 indicates no synergism, 0.05-0.1 indicates mild synergy, 0.1-0.2 indicates moderate synergy, and >0.2 indicates robust synergy.
This study explores the inhibition of a variety types of cancer cells (e.g., KRAS G12D driven tumor cells) using a combination of small molecule based Kras12D inhibitor and SHP2 inhibitor. Cell lines from multiple indications were utilized and include the A427 (a non-small cell lung cancer, “NSCLC”), ASPC1 and Panc04.03 (both pancreatic cancer), Ls174T and Ls513 (both colorectal cancer), AGS (a gastric cancer), and HEClA (an endometrial cancer cell line). All cell lines contain a KRAS G12D mutation. The seven cancer cell lines were cultured in vitro in a 3D proliferation assay where cells are grown in ultra-low attachment surface cell culture plates in RPMI medium containing 10% FBS. Cells were incubated with different concentrations of SHP2 inhibitor (e.g., 10 uM, 3 uM, or 1 uM) and with different concentrations of a Kras12D inhibitors (either Compound A, Compound B, or Compound C, e.g., 0.1 uM, 0.3 uM, 1.0 uM, 3.0 uM) for a period of 5 days. […] The degree of synergy for the combination across cell lines was calculated by using the Bliss independence model as described in the preceding examples.
The study explores the inhibition of a variety types of cancer cells (e.g., KRAS G12D driven tumor cells) using a combination of small molecule based Kras12D inhibitor and EGFR inhibitor.

[2] = test system: A427, ASPC1 and Ls513 cancer cell lines (KRAS G12D mutation); test: cell growth inhibition in 3D suspension culture after lentiviral shRNA KRAS knockdown plus inhibitor, Bliss independence model; conditions: for degree of synergy of cell growth inhibition (excess over Bliss): all cell lines tested
From the text: This study explores the inhibition of a variety types (e.g., Kras G12D driven tumor cells) of cancer cells using a combination of nucleic-acid based Kras12D inhibitor and SOS inhibitor. Cell lines utilized include A427, a non-small cell lung cancer (NSCLC), ASPC1, a pancreatic cancer, and Ls513, colorectal cancer cell line. All three cell lines contain a KRAS G12D mutation. The cancer cell lines were adherently cultured in vitro and transduced with lentiviral particles packaged with shRNAs targeting either KRAS or negative control gene Luciferase.
Amphotropic lentiviruses were produced by the co-transfection of 293FT cells and were packaged using the ViraPower lentiviral expression system (ThermoFisher Scientific). Lentiviral shRNA clones targeting luciferase (as sh-Ctrl) and KRAS were obtained from Sigma in the MISSION pLKO.1-puro vector with clone IDs as follows: shKRAS #1: TRCN0000033262, NM_033360.2-509s1c1, shKRAS #2: TRCN0000033260, NM_033360.2-407s1c1, and the Luciferase shRNA control plasmid DNA (Cat #SHC007, Sigma). Viral supernatants were filtered through a 0.45 µm filter and supplemented with […] of polybrene (Sigma) and added to 70% confluent cells pre-plated in six-well dishes. Plates were spinfected for 1 h under 600×g at 37° C. centrifugation. Cells were subsequently washed with PBS and allowed to rest 48 hours in fresh culture media at 37° C. Next, cells were reseeded as 3D suspensions (ultra-low adherent plates) into 384 well plates in RPMI medium containing 10% FBS. Approximately 24 hrs later, 10 uM SOS inhibitor as described herein or DMSO (as negative control) was added to the cell cultures for a period of about 5 days. […] The degree of synergy for the combination across cell lines was calculated by using the Bliss independence model. […] The greater the departure from Bliss indicates more profound synergy: <0 is no synergism, 0.05-0.1 is mild synergy, 0.1-0.2 moderate synergy, and >0.2 is robust synergy.
Amphotropic lentiviruses were produced in the same manner as described in the preceding Example 6. 1 uM SHP2 inhibitor as described herein or DMSO (as negative control) was added to the cell cultures for a period of about 5 days. […] The degree of synergy for the combination across cell lines was calculated by using the Bliss independence model. […] The greater the departure from Bliss indicates more profound synergy: <0 is no synergism, 0.05-0.1 is mild synergy, 0.1-0.2 moderate synergy, and >0.2 is robust synergy.
Amphotropic lentiviruses were produced in the same manner as described in the preceding Example 6. […] The concentration of the respective EGFR inhibitors utilized in this cell assay was chosen to be within the range corresponding to achievable exposures and pharmacokinetics of a recommended and clinically relevant doses applied in human. […] The degree of synergy for the combination across cell lines was calculated by using the Bliss independence model as exemplified in the preceding Example 6.
Amphotropic lentiviruses were produced in the same manner as described in the preceding Example 6. 3 nM of Trametinib or DMSO (negative control) was added to the cell cultures for a period of about 5 days. The concentration of the MEK inhibitor utilized in this cell assay was chosen to be within the range corresponding to achievable exposures and pharmacokinetics of a recommended and clinical relevant dose applied in human. […] The degree of synergy for the combination across cell lines was calculated by using the Bliss independence model as exemplified in the preceding Example 6.
Amphotropic lentiviruses were produced in the same manner as described in the preceding Example 6.

[3] = test system: A427, ASPC1, Panc04.03, Ls174T, Ls513, AGS and HEClA cancer cell lines (KRAS G12D mutation); test: 3D proliferation assay (ultra-low attachment plates), small molecule Kras12D inhibitor plus second inhibitor, Bliss independence model; conditions: for cell growth inhibition: across the cell line panel; for maximal cell growth inhibition, on average: average over cell line panel

C#Cc1cccc(Nc2ncnc3cc(OCCOC)c(OCCOC)cc23)c1 [erlotinib] was tested, and the cell growth inhibition ([1]; erlotinib as single agent, across its concentration range (up to 10 uM), across the cell line panel) was “no more than 72%”, the “maximal cell growth inhibition response, on average” value ([1]; erlotinib as single agent, average over cell line panel) was “under 50%” and the inhibition at 3 µM ([2]; 3 uM in combination with nucleic-acid based Kras12D inhibitor, pancreatic, colorectal and NSCLC cell lines) was at most 75%. The inhibition at 3 µM ([2]; 120 h, single agent, 3 uM, about 5 days) was under 30%.
In the case of CN(C)C/C=C/C(=O)Nc1cc2c(Nc3ccc(F)c(Cl)c3)ncnc2cc1O[C@H]1CCOC1 [afatinib], the inhibition at 0.1 µM ([2]; 0.1 uM in combination with nucleic-acid based Kras12D inhibitor, pancreatic, colorectal and NSCLC cell lines) is reported as at most 75%, the inhibition at 0.1 µM ([2]; 120 h, single agent, 0.1 uM, about 5 days) is reported as under 30% and the cell growth inhibition ([3]; afatinib as single agent, across its concentration range (up to 1 uM)) is reported as “no more than 86%”.
In the case of C[C@@H]1OCC2(CCN(c3cnc(Sc4ccnc(N)c4Cl)c(N)n3)CC2)[C@@H]1N [SHP2 inhibitor, (3S,4S)-8-(6-amino-5-((2-amino-3-chloropyridin-4-yl)thio)pyrazin-2-yl)-3-methyl-2-oxa-8-azaspiro[4.5]decan-4-amine], the cell growth inhibition ([1]; SHP2 inhibitor as single agent, across its concentration range (up to 10 uM), across the cell line panel) is reported as “no more than 75%”, the “maximal cell growth inhibition, on average” value ([1]; SHP2 inhibitor as single agent, average over cell line panel) is reported as “about 36%” and the “degree of synergy of cell growth inhibition (excess over Bliss)” value ([2]; 1 uM SHP2 inhibitor in combination with nucleic-acid based Kras12D inhibitor (shRNA KRAS), about 5 days) is reported as “moderate (0.1-0.2 moderate synergy)”.
In the case of Cc1nc(NC(=O)N2CCC[C@H]2C(N)=O)sc1-c1ccnc(C(C)(C)C(F)(F)F)c1 [BYL719], the cell growth inhibition ([2]; 0.3 uM PI3K-alpha inhibitor (BYL719) in combination with nucleic-acid based Kras12D inhibitor) is reported as “up to 87%”, the “degree of synergy of cell growth inhibition (excess over Bliss)” value ([2]; 0.3 uM PI3K-alpha inhibitor (BYL719) in combination with nucleic-acid based Kras12D inhibitor, 5 days) is reported as “little to moderate” and the cell growth inhibition ([3]; PI3Ka inhibitor (BYL719) as single agent, across its concentration range (up to 10 uM)) is reported as “no more than 88%”. The “maximal cell growth inhibition, on average” value ([3]; PI3Ka inhibitor (BYL719) as single agent) was “about 58%”.
With CC(=O)c1c(C)c2cnc(Nc3ccc(N4CCNCC4)cn3)nc2n(C2CCCC2)c1=O [palbociclib] the cell growth inhibition ([2]; 0.3 uM CDK4/6 inhibitor (Palbociclib) in combination with nucleic-acid based Kras12D inhibitor) was “up to 79%”, the cell growth inhibition ([3]; CDK4/6 inhibitor (palbociclib) as single agent, across its concentration range (up to 1 uM)) was “no more than 81%” and the “maximal cell growth inhibition, on average” value ([3]; CDK4/6 inhibitor (palbociclib) as single agent) was “about 48%”.
For CC(=O)Nc1cccc(-n2c(=O)n(C3CC3)c(=O)c3c(Nc4ccc(I)cc4F)n(C)c(=O)c(C)c32)c1 [Trametinib, trametinib], the inhibition at 0.003 µM ([2]; 3 nM Trametinib in combination with nucleic-acid based Kras12D inhibitor) was at most 89%, the inhibition at 0.003 µM ([2]; single agent, 3 nM Trametinib) was under 50% and the cell growth inhibition ([3]; MEK inhibitor as single agent, across its concentration range (up to 0.01 uM)) was “no more than 68%”. The “maximal cell growth inhibition, on average” value ([3]; MEK inhibitor as single agent) was “about 42%”.
With Cc1c(C#N)cccc1[C@@H](C)Nc1nnc(C)c2cnc(N3CCOCC3)cc12 [SOS inhibitor] the cell growth inhibition ([1]; SOS inhibitor as single agent, across its concentration range (up to 10 uM), across the cell line panel) was “no more than 50%”, the cell growth inhibition ([1]; SOS inhibitor tested alone (FIG. 12 cell lines)) was “no significant cell growth inhibition” and the “degree of synergy of cell growth inhibition (excess over Bliss)” value ([2]; 10 uM SOS inhibitor in combination with nucleic-acid based Kras12D inhibitor (shRNA KRAS), about 5 days) was “robust (>0.2 is robust synergy)”.
